Assay results taken from PubChem BioAssay AID1963445 (Molecular Pharmacology Branch, DTP, NCI, 2024).

System: MCF7 complex spheroid growth, % test/control
Assay: Anticancer human tumor MCF7 cell line growth inhibition [Asc];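 note: spheroids exposed to compounds for 7 days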;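 for viability, T/C: 100% = DMSO vehicle control wells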
Conditions: for IC50: curve of first compound; for viability, T/C: stronger effect = lower value
Outline: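 Tumor cells were grown as complex spheroids with human endothelial cells (HUVEC) and human mesenchymal stem cells as stroma. Agents were tested alone and in combination, in half-log steps down from the clinical Cmax, or from 10 microM where Cmax was unknown.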

[1] = second compound 0.0316 µM, first compound 0.0316 µM
[2] = second compound 0.0316 µM, first compound 0.1 µM
[3] = second compound 0.0316 µM, first compound 0.316 µM
[4] = second compound 0.0316 µM, first compound 1 µM
[5] = second compound 0.0316 µM, first compound 3.16 µM
[6] = second compound 0.0316 µM, first compound 10 µM
[7] = second compound 0.1 µM, first compound 0.0316 µM
[8] = second compound 0.1 µM, first compound 0.1 µM
[9] = second compound 0.1 µM, first compound 0.316 µM
[10] = second compound 0.1 µM, first compound 1 µM
[11] = second compound 0.1 µM, first compound 3.16 µM
[12] = second compound 0.1 µM, first compound 10 µM
[13] = second compound 0.316 µM, first compound 0.0316 µM
[14] = second compound 0.316 µM, first compound 0.1 µM
[15] = second compound 0.316 µM, first compound 0.316 µM
[16] = second compound 0.316 µM, first compound 1 µM
[17] = second compound 0.316 µM, first compound 3.16 µM
[18] = second compound 0.316 µM, first compound 10 µM
[19] = second compound 1 µM, first compound 0.0316 µM
[20] = second compound 1 µM, first compound 0.1 µM
[21] = second compound 1 µM, first compound 0.316 µM
[22] = second compound 1 µM, first compound 1 µM
[23] = second compound 1 µM, first compound 3.16 µM
[24] = second compound 1 µM, first compound 10 µM
[25] = second compound 3.16 µM, first compound 0.0316 µM
[26] = second compound 3.16 µM, first compound 0.1 µM
[27] = second compound 3.16 µM, first compound 0.316 µM
[28] = second compound 3.16 µM, first compound 1 µM
[29] = second compound 3.16 µM, first compound 3.16 µM
[30] = second compound 3.16 µM, first compound 10 µM
[31] = second compound 10 µM, first compound 0.0316 µM
[32] = second compound 10 µM, first compound 0.1 µM
[33] = second compound 10 µM, first compound 0.316 µM
[34] = second compound 10 µM, first compound 1 µM
[35] = second compound 10 µM, first compound 3.16 µM
[36] = second compound 10 µM, first compound 10 µM

SMILES: C=C(F)C(=O)N1CCN(c2nc(OCC3CCCN3C)nc3c2CCN(c2cccc4cccc(Cl)c24)C3)CC1CC#N (stereo unspecified) + Cc1c(S(C)(=O)=O)c(-c2cc(F)cc(N3CCN(c4ccc(NS(=O)(=O)c5ccc(NC(CCN6CCC(C(=O)OCCCP(=O)(O)O)CC6)CSc6ccccc6)c(S(=O)(=O)C(F)(F)F)c5)cc4)CC3)c2)c(-c2ccc(Cl)cc2)n1C(C)C
- IC50 (second compound 0.0316 µM): 3.44 µM
- IC50 (second compound 0.1 µM): 4.54 µM
- IC50 (second compound 0.316 µM): 3 µM
- IC50 (second compound 1 µM): 3.92 µM
- IC50 (second compound 3.16 µM): 3.29 µM
- IC50 (second compound 10 µM): 4.23 µM
- viability, T/C [1]: 105%
- viability, T/C [2]: 108%
- viability, T/C [3]: 87.6%
- viability, T/C [4]: 75.2%
- viability, T/C [5]: 60.7%
- viability, T/C [6]: 0.25%
- viability, T/C [7]: 107%
- viability, T/C [8]: 90.5%
- viability, T/C [9]: 97.3%
- viability, T/C [10]: 95.8%
- viability, T/C [11]: 72.7%
- viability, T/C [12]: 0.14%
- viability, T/C [13]: 103%
- viability, T/C [14]: 88.8%
- viability, T/C [15]: 86.8%
- viability, T/C [16]: 87%
- viability, T/C [17]: 48%
- viability, T/C [18]: 0.13%
- viability, T/C [19]: 96.3%
- viability, T/C [20]: 82.6%
- viability, T/C [21]: 87.1%
- viability, T/C [22]: 81.5%
- viability, T/C [23]: 61.8%
- viability, T/C [24]: 0.17%
- viability, T/C [25]: 97.9%
- viability, T/C [26]: 86%
- viability, T/C [27]: 84.2%
- viability, T/C [28]: 81.7%
- viability, T/C [29]: 50.8%
- viability, T/C [30]: 0.17%
- viability, T/C [31]: 200%
- viability, T/C [32]: 167%
- viability, T/C [33]: 231%
- viability, T/C [34]: 223%
- viability, T/C [35]: 66.7%
- viability, T/C [36]: 0.3%

SMILES: C=CC(=O)N1CCN(c2nc(=O)n(-c3c(C)ccnc3C(C)C)c3nc(-c4c(O)cccc4F)c(F)cc23)C(C)C1 (stereo unspecified) + Cc1c(S(C)(=O)=O)c(-c2cc(F)cc(N3CCN(c4ccc(NS(=O)(=O)c5ccc(NC(CCN6CCC(C(=O)OCCCP(=O)(O)O)CC6)CSc6ccccc6)c(S(=O)(=O)C(F)(F)F)c5)cc4)CC3)c2)c(-c2ccc(Cl)cc2)n1C(C)C
- IC50 (second compound 0.0316 µM): > 10 µM
- IC50 (second compound 0.1 µM): > 10 µM
- IC50 (second compound 0.316 µM): > 10 µM
- IC50 (second compound 1 µM): > 10 µM
- IC50 (second compound 3.16 µM): > 10 µM
- IC50 (second compound 10 µM): > 10 µM
- viability, T/C [1]: 101%
- viability, T/C [2]: 105%
- viability, T/C [3]: 99.7%
- viability, T/C [4]: 95.5%
- viability, T/C [5]: 112%
- viability, T/C [6]: 85.8%
- viability, T/C [7]: 92.9%
- viability, T/C [8]: 89.6%
- viability, T/C [9]: 89%
- viability, T/C [10]: 110%
- viability, T/C [11]: 92.3%
- viability, T/C [12]: 87.4%
- viability, T/C [13]: 101%
- viability, T/C [14]: 92.7%
- viability, T/C [15]: 109%
- viability, T/C [16]: 90.1%
- viability, T/C [17]: 89.5%
- viability, T/C [18]: 81.3%
- viability, T/C [19]: 87.2%
- viability, T/C [20]: 91.4%
- viability, T/C [21]: 102%
- viability, T/C [22]: 97.4%
- viability, T/C [23]: 101%
- viability, T/C [24]: 89.9%
- viability, T/C [25]: 92.9%
- viability, T/C [26]: 94.9%
- viability, T/C [27]: 103%
- viability, T/C [28]: 94.1%
- viability, T/C [29]: 89.5%
- viability, T/C [30]: 86.1%
- viability, T/C [31]: 222%
- viability, T/C [32]: 143%
- viability, T/C [33]: 171%
- viability, T/C [34]: 195%
- viability, T/C [35]: 233%
- viability, T/C [36]: 168%

SMILES: CCN1C(C(=O)NC23CCC(C(=O)O)(CC2)CC3)C(c2cccc(Cl)c2F)C2(C(=O)Nc3cc(Cl)ccc32)C12CCCCC2 (stereo unspecified) + Cc1c(S(C)(=O)=O)c(-c2cc(F)cc(N3CCN(c4ccc(NS(=O)(=O)c5ccc(NC(CCN6CCC(C(=O)OCCCP(=O)(O)O)CC6)CSc6ccccc6)c(S(=O)(=O)C(F)(F)F)c5)cc4)CC3)c2)c(-c2ccc(Cl)cc2)n1C(C)C
- IC50 (second compound 0.0316 µM): 0.134 µM
- IC50 (second compound 0.1 µM): 0.11 µM
- IC50 (second compound 0.316 µM): 0.09 µM
- IC50 (second compound 1 µM): 0.082 µM
- IC50 (second compound 3.16 µM): 0.0603 µM
- IC50 (second compound 10 µM): 0.0735 µM
- viability, T/C (second compound 0.0316 µM, first compound 0.00949 µM): 96.9%
- viability, T/C (second compound 0.0316 µM, first compound 0.03 µM): 97.5%
- viability, T/C (second compound 0.0316 µM, first compound 0.0949 µM): 48.9%
- viability, T/C (second compound 0.0316 µM, first compound 0.3 µM): 38.3%
- viability, T/C (second compound 0.0316 µM, first compound 0.949 µM): 22.7%
- viability, T/C (second compound 0.0316 µM, first compound 3 µM): 12.1%
- viability, T/C (second compound 0.1 µM, first compound 0.00949 µM): 108%
- viability, T/C (second compound 0.1 µM, first compound 0.03 µM): 93.7%
- viability, T/C (second compound 0.1 µM, first compound 0.0949 µM): 46%
- viability, T/C (second compound 0.1 µM, first compound 0.3 µM): 34.5%
- viability, T/C (second compound 0.1 µM, first compound 0.949 µM): 15.2%
- viability, T/C (second compound 0.1 µM, first compound 3 µM): 11.4%
- viability, T/C (second compound 0.316 µM, first compound 0.00949 µM): 95.2%
- viability, T/C (second compound 0.316 µM, first compound 0.03 µM): 79.6%
- viability, T/C (second compound 0.316 µM, first compound 0.0949 µM): 45%
- viability, T/C (second compound 0.316 µM, first compound 0.3 µM): 28.9%
- viability, T/C (second compound 0.316 µM, first compound 0.949 µM): 15%
- viability, T/C (second compound 0.316 µM, first compound 3 µM): 9.79%
- viability, T/C (second compound 1 µM, first compound 0.00949 µM): 91.9%
- viability, T/C (second compound 1 µM, first compound 0.03 µM): 74.4%
- viability, T/C (second compound 1 µM, first compound 0.0949 µM): 42.5%
- viability, T/C (second compound 1 µM, first compound 0.3 µM): 33.4%
- viability, T/C (second compound 1 µM, first compound 0.949 µM): 11.6%
- viability, T/C (second compound 1 µM, first compound 3 µM): 14.9%
- viability, T/C (second compound 3.16 µM, first compound 0.00949 µM): 97.9%
- viability, T/C (second compound 3.16 µM, first compound 0.03 µM): 63.8%
- viability, T/C (second compound 3.16 µM, first compound 0.0949 µM): 44.2%
- viability, T/C (second compound 3.16 µM, first compound 0.3 µM): 18.8%
- viability, T/C (second compound 3.16 µM, first compound 0.949 µM): 12.1%
- viability, T/C (second compound 3.16 µM, first compound 3 µM): 11.5%
- viability, T/C (second compound 10 µM, first compound 0.00949 µM): 188%
- viability, T/C (second compound 10 µM, first compound 0.03 µM): 153%
- viability, T/C (second compound 10 µM, first compound 0.0949 µM): 30.6%
- viability, T/C (second compound 10 µM, first compound 0.3 µM): 27.4%
- viability, T/C (second compound 10 µM, first compound 0.949 µM): 12.2%
- viability, T/C (second compound 10 µM, first compound 3 µM): 12.3%
